Results taken from patent publication US20260015358A1, “BICYCLIC DERIVATIVES, COMPOSITIONS AND USES THEREOF” (Danatlas Pharmaceuticals Co., Ltd., priority 2023, published 2026).

What was measured:
[1] = biological target: T1, WRN [UniPro: Q14191 (WRN_HUMAN), N500-C946] (Homo sapiens (Human), UniProt Q14191); assay: WRN ATPase assay (ADP-Glo); assay type: biochemical; conditions: WRN enzymatic activity assay
[2] = biological target: T1, WRN [UniPro: Q14191 (WRN_HUMAN), N500-C946]; assay: WRN unwinding assay (FORKF DNA, fluorescence); assay type: biochemical; conditions: Table 14

T1 sequence (Q14191 500-946): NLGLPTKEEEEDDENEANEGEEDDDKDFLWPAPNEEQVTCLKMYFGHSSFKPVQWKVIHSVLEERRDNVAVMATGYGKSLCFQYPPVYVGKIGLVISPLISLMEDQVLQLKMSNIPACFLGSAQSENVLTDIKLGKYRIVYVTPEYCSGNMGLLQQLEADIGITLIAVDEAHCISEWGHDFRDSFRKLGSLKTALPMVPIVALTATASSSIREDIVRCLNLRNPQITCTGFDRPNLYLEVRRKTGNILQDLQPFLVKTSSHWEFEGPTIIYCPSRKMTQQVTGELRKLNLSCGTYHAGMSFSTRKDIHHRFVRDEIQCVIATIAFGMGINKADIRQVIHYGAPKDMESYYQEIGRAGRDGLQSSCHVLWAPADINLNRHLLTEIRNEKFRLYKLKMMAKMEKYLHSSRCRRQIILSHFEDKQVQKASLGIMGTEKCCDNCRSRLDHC

Row | Compound | IC50 [1] [nM] | IC50 [2] [nM]
1 | CCc1c(N2CCN(C(=O)CNS(=O)(=O)c3ccccc3)CC2)c(=O)n2nc(C3=CCOCC3)nc2n1CC(=O)Nc1ccc(C(F)(F)F)cc1Cl [Example 171, N-(2-Chloro-4-(trifluoromethyl)phenyl)-2-(2-(3,6-dihydro-2H-pyran-4-yl)-5-ethyl-7-oxo-6-(4-(2-(phenylsulfonamido)acetyl)piperazin-1-yl)-[1,2,4]triazolo[1,5-a]pyrimidin-4(7H)-yl)acetamide] | 100 to 1000 | 100 to 1000
2 | CCc1c(N2CCN(C(=O)CNC(=O)COC)CC2)c(=O)n2nc(C3=CCOCC3)nc2n1CC(=O)Nc1ccc(C(F)(F)F)cc1Cl [Example 174, N-(2-Chloro-4-(trifluoromethyl)phenyl)-2-(2-(3,6-dihydro-2H-pyran-4-yl)-5-ethyl-6-(4-((2-methoxyacetyl)glycyl)piperazin-1-yl)-7-oxo-[1,2,4]triazolo[1,5-a]pyrimidin-4(7H)-yl)acetamide] | < 100 | < 100
3 | CCc1c(N2CCN(C(=O)CNC(=O)Cc3ccc(F)cc3)CC2)c(=O)n2nc(C3=CCOCC3)nc2n1CC(=O)Nc1ccc(C(F)(F)F)cc1Cl [Example 177, N-(2-Chloro-4-(trifluoromethyl)phenyl)-2-(2-(3,6-dihydro-2H-pyran-4-yl)-5-ethyl-6-(4-((2-(4-fluorophenyl)acetyl)glycyl)piperazin-1-yl)-7-oxo-[1,2,4]triazolo[1,5-a]pyrimidin-4(7H)-yl)acetamide] | < 100 | < 100
4 | CCc1c(N2CCN(C(=O)CNC(=O)Nc3ccccc3)CC2)c(=O)n2nc(C3=CCOCC3)nc2n1CC(=O)Nc1ccc(C(F)(F)F)cc1Cl [Example 178, N-(2-Chloro-4-(trifluoromethyl)phenyl)-2-(2-(3,6-dihydro-2H-pyran-4-yl)-5-ethyl-7-oxo-6-(4-((phenylcarbamoyl)glycyl)piperazin-1-yl)-[1,2,4]triazolo[1,5-a]pyrimidin-4 (7H)-yl)acetamide] | < 100 | < 100
5 | CCc1c(N2CCN(C(=O)CNC(=O)Nc3cc(F)cc(F)c3)CC2)c(=O)n2nc(C3=CCOCC3)nc2n1CC(=O)Nc1ccc(C(F)(F)F)cc1Cl [Example 179, N-(2-Chloro-4-(trifluoromethyl)phenyl)-2-(6-(4-(((3,5-difluorophenyl)carbamoyl)glycyl)piperazin-1-yl)-2-(3,6-dihydro-2H-pyran-4-yl)-5-ethyl-7-oxo-[1,2,4]triazolo[1,5-a]pyrimidin-4(7H)-yl)acetamide] | < 100 | < 100
6 | CCc1c(N2CCN(C(=O)CNC(=O)Nc3ccccc3Cl)CC2)c(=O)n2nc(C3=CCOCC3)nc2n1CC(=O)Nc1ccc(C(F)(F)F)cc1Cl [Example 181, N-(2-Chloro-4-(trifluoromethyl)phenyl)-2-(6-(4-(((2-chlorophenyl)carbamoyl)glycyl)piperazin-1-yl)-2-(3,6-dihydro-2H-pyran-4-yl)-5-ethyl-7-oxo-[1,2,4]triazolo[1,5-a]pyrimidin-4(7H)-yl)acetamide] | < 100 | < 100
7 | CCc1c(N2CCN(C(=O)CNC(=O)N3CCc4ccccc43)CC2)c(=O)n2nc(C3=CCOCC3)nc2n1CC(=O)Nc1ccc(C(F)(F)F)cc1Cl [Example 182, N-(2-(4-(4-(2-((2-Chloro-4-(trifluoromethyl)phenyl)amino)-2-oxoethyl)-2-(3,6-dihydro-2H-pyran-4-yl)-5-ethyl-7-oxo-4,7-dihydro-[1,2,4]triazolo[1,5-a]pyrimidin-6-yl)piperazin-1-yl)-2-oxoethyl) indoline-1-carboxamide] | < 100 | < 100
8 | CCc1c(N2CCN(C(=O)CNC(=O)NCc3ccccc3)CC2)c(=O)n2nc(C3=CCOCC3)nc2n1CC(=O)Nc1ccc(C(F)(F)F)cc1Cl [Example 183, 2-(6-(4-((Benzylcarbamoyl)glycyl)piperazin-1-yl)-2-(3,6-dihydro-2H-pyran-4-yl)-5-ethyl-7-oxo-[1,2,4]triazolo[1,5-a]pyrimidin-4(7H)-yl)-N-(2-chloro-4-(trifluoromethyl)phenyl)acetamide] | < 100 | < 100
9 | CCc1c(N2CCN(C(=O)CNC(=O)N3Cc4ccccc4C3)CC2)c(=O)n2nc(C3=CCOCC3)nc2n1CC(=O)Nc1ccc(C(F)(F)F)cc1Cl [Example 185, N-(2-(4-(4-(2-((2-Chloro-4-(trifluoromethyl)phenyl)amino)-2-oxoethyl)-2-(3,6-dihydro-2H-pyran-4-yl)-5-ethyl-7-oxo-4,7-dihydro-[1,2,4]triazolo[1,5-a]pyrimidin-6-yl)piperazin-1-yl)-2-oxoethyl)isoindoline-2-carboxamide] | < 100 | < 100

Next, values leading:

Row | IC50 [1] [nM] | IC50 [2] [nM] | Compound
10 | 100 to 1000 | 100 to 1000 | CCc1c(N2CCN(C(=O)CNC(=O)N(C)C)CC2)c(=O)n2nc(C3=CCOCC3)nc2n1CC(=O)Nc1ccc(C(F)(F)F)cc1Cl [Example 173, N-(2-Chloro-4-(trifluoromethyl)phenyl)-2-(2-(3,6-dihydro-2H-pyran-4-yl)-6-(4-((dimethylcarbamoyl)glycyl)piperazin-1-yl)-5-ethyl-7-oxo-[1,2,4]triazolo[1,5-a]pyrimidin-4(7H)-yl)acetamide]
11 | 100 to 1000 | 100 to 1000 | CCc1c(N2CCN(C(=O)CNC(=O)c3ccc(C(F)(F)F)cc3)CC2)c(=O)n2nc(C3=CCOCC3)nc2n1CC(=O)Nc1ccc(C(F)(F)F)cc1Cl [Example 176, N-(2-(4-(4-(2-((2-Chloro-4-(trifluoromethyl)phenyl)amino)-2-oxoethyl)-2-(3,6-dihydro-2H-pyran-4-yl)-5-ethyl-7-oxo-4,7-dihydro-[1,2,4]triazolo[1,5-a]Pyrimidin-6-yl)piperazin-1-yl)-2-oxoethyl)-4-(trifluoromethyl)benzamide]
12 | < 100 | < 100 | CCc1c(N2CCN(C(=O)CNC(=O)Nc3ccccc3F)CC2)c(=O)n2nc(C3=CCOCC3)nc2n1CC(=O)Nc1ccc(C(F)(F)F)cc1Cl [Example 180, N-(2-Chloro-4-(trifluoromethyl)phenyl)-2-(2-(3,6-dihydro-2H-pyran-4-yl)-5-ethyl-6-(4-(((2-fluorophenyl)carbamoyl)glycyl)piperazin-1-yl)-7-oxo-[1,2,4]triazolo[1,5-a]pyrimidin-4(7H)-yl)acetamide]
13 | < 100 | < 100 | CCc1c(N2CCN(C(=O)CNC(=O)NC3CC3)CC2)c(=O)n2nc(C3=CCOCC3)nc2n1CC(=O)Nc1ccc(C(F)(F)F)cc1Cl [Example 184, N-(2-Chloro-4-(trifluoromethyl)phenyl)-2-(6-(4-((cyclopropylcarbamoyl)glycyl)piperazin-1-yl)-2-(3,6-dihydro-2H-pyran-4-yl)-5-ethyl-7-oxo-[1,2,4]triazolo[1,5-a]pyrimidin-4(7H)-yl)acetamide]
14 | < 100 | < 100 | CCc1c(N2CCN(C(=O)CNC(=O)Nc3cc(F)ccc3F)CC2)c(=O)n2nc(C3=CCOCC3)nc2n1CC(=O)Nc1ccc(C(F)(F)F)cc1Cl [Example 186, N-(2-Chloro-4-(trifluoromethyl)phenyl)-2-(6-(4-(((2,5-difluorophenyl)carbamoyl)glycyl)piperazin-1-yl)-2-(3,6-dihydro-2H-pyran-4-yl)-5-ethyl-7-oxo-[1,2,4]triazolo[1,5-a]pyrimidin-4(7H)-yl)acetamide]
